Assay results published in patent US20220056043A1, “NITROGEN-CONTAINING FUSED CYCLIC COMPOUND, PREPARATION METHOD THEREFOR AND USE THEREOF” (SICHUAN KELUN-BIOTECH BIOPHARMACEUTICAL CO., LTD., priority 2019, published 2022).

Molecular target: T1, hTLR8 (Homo sapiens, UniProt Q9NR97)
T1 construct: host or cells: HEK-Blue hTLR8 cells
T1 sequence (Q9NR97 27-1041): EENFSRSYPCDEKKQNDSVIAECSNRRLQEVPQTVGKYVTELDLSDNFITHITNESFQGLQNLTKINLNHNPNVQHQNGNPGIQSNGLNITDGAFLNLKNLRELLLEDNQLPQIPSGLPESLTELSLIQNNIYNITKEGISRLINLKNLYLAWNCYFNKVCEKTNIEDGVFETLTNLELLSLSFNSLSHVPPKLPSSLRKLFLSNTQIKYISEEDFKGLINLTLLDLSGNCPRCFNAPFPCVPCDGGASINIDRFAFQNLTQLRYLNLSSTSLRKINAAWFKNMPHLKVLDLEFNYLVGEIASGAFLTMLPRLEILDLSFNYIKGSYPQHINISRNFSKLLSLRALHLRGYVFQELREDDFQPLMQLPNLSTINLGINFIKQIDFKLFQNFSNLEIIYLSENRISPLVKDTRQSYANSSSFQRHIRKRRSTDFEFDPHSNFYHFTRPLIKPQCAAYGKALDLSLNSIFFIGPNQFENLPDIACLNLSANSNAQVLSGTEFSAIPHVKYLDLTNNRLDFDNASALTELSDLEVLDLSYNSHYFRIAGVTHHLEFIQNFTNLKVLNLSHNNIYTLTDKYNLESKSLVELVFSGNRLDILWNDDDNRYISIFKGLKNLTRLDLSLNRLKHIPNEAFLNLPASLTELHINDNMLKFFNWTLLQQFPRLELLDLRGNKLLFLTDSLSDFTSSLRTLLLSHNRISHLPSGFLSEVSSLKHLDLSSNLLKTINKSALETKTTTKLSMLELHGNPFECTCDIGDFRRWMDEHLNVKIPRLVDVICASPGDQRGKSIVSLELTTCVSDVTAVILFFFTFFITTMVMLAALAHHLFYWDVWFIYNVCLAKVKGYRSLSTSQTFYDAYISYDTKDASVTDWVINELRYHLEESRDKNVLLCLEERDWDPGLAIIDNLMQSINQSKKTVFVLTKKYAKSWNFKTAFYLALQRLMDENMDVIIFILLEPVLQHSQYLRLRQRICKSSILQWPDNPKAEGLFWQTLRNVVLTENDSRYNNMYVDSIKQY
Test: Agonistic effect on hTLR8, HEK-Blue hTLR8 cells, alkaline phosphatase secretion
Format: cell-based
Conditions: 16 hours
Procedure: Experimental Example 4: Agonistic Effect of the Compound of the Invention on hTLR8
In this test, the secretion of alkaline phosphatase in HEK-Blue cells was measured to test the activating effect of the compound of the invention on TLR8 signaling pathway, so as to evaluate the specificity of the agonistic effect of the compound on NLRP3 pathway.
Reagents: DMEM (High glucose); FBS (fetal bovine serum) (Gibco); QUANTI-Blue/InvivoGen/rep-qb2
Cells: HEK-Blue™ hTLR8 cells (human TLR 8 cells) (InvivoGen) Experimental Procedures:
1) The HEK-Blue™ hTLR8 cells in a logarithmic growth phase were trypsinized and resuspended in the medium to a concentration of 2×10^6 cells/mL. 50 μL/well of the cell suspension was added to a 96-well plate. An appropriate amount of 10 mM DMSO solution of the compound to be tested was taken and diluted to a concentration of 2× test concentration with the medium. 50 μL/well was added to the cells in the 96-well plate. The plate was incubated in an incubator at 37° C. and 5% CO2 for 16 hours. The medium was DMEM (High glucose) containing 10% FBS. 2) After the cell incubation, 10 μL of cell culture supernatant was transferred to a 96-well plate. 90 μL/well of QUANTI-Blue detection solution was added, and the mixture was incubated at 37° C. for 3 hours. OD620 was read using a microplate reader.
3) The EC50 of the effect of the tested compound to stimulate hTLR8 was fitted by the GraphPad software log(agonist) vs. response—Variable slope four-parameter method.

| EC50 | SMILES |
| --- | --- |
| > 100 µM | Nc1cc(NCC2CC2)c2sc(-c3ccn[nH]3)cc2n1 [Compound 102, N^7-(cyclopropylmethyl)-2-(1H-pyrazol-5-yl)thieno[3,2-b]pyridine-5,7-diamine] |
| > 100 µM | CN1CCC[C@@H](Nc2cc(N)nc3cc(-c4ccn[nH]4)sc23)C1 [Compound 104, (R)—N^7-(1-methylpiperidin-3-yl)-2-(1H-pyrazol-5-yl)thieno[3,2-b]pyridine-5,7-diamine] |
| > 100 µM | Nc1cc(NC[C@@H]2CCCO2)c2sc(-c3ccn[nH]3)cc2n1 [Compound 105, (S)-2-(1H-pyrazol-5-yl)-N^7-((tetrahydrofuran-2-yl)methyl)thieno[3,2-b]pyridine-5,7-diamine] |
| > 100 µM | Cn1cc(CNc2cc(N)nc3cc(-c4ccn[nH]4)sc23)cn1 [Compound 106, N^7-(1-methyl-1H-pyrazol-4-yl)methyl-2-(1H-pyrazol-5-yl)thieno[3,2-b]pyridine-5,7-diamine] |
| > 100 µM | C[C@@H](CO)Nc1cc(N)nc2cc(-c3ccn[nH]3)sc12 [Compound 108, (S)-2-((5-amino-2-(1H-pyrazol-5-yl)thieno[3,2-b]pyridin-7-yl)amino)propanol] |
| > 100 µM | Cn1cc(-c2cc3nc(N)cc(NCCCO)c3s2)cn1 [Compound 109, 3-((5-amino-2-(1-methyl-1H-pyrazol-4-yl)thieno[3,2-b]pyridin-7-yl)amino)-1-propanol] |
| > 100 µM | Nc1cc(NC2CCCC2)c2sc(-c3ccn[nH]3)cc2n1 [Compound 110, N^7-cyclopentyl-2-(1H-pyrazol-5-yl)thieno[3,2-b]pyridine-5,7-diamine] |
| > 100 µM | COC(C)(C)CNc1cc(N)nc2cc(-c3ccn[nH]3)sc12 [Compound 111, N^7-(2′-methoxy-2′-methylpropyl)-2-(1H-pyrazol-5-yl)thieno[3,2-b]pyridine-5,7-diamine] |
| > 100 µM | Nc1cc(NC2COC2)c2sc(-c3ccn[nH]3)cc2n1 [Compound 112, N^7-(oxetan-3-yl)-2-(1H-pyrazol-5-yl)thieno[3,2-b]pyridine-5,7-diamine] |
| > 100 µM | CCC(CC)Nc1cc(N)nc2cc(-c3ccn[nH]3)sc12 [Compound 113, N^7-(pent-3-yl)-2-(1H-pyrazol-5-yl)thieno[3,2-b]pyridine-5,7-diamine] |
| > 100 µM | Nc1cc(NC2CCC(O)CC2)c2sc(-c3ccn[nH]3)cc2n1 (stereo not drawn) [Compound 114, 4-((5-amino-2-(1H-pyrazol-5-yl)thieno[3,2-b]pyridin-7-yl)amino)-1-cyclohexanol] |
| > 100 µM | CC(C)(CO)CNc1cc(N)nc2cc(-c3ccn[nH]3)sc12 [Compound 115, 3-((5-amino-2-(1H-pyrazol-5-yl)thieno[3,2-b]pyridin-7-yl)amino)-2,2-dimethyl-1-propanol] |
| > 100 µM | Nc1cc(NCC(F)F)c2sc(-c3ccn[nH]3)cc2n1 [Compound 116, N^7-(2,2-difluoroethyl)-2-(1H-pyrazol-5-yl)thieno[3,2-b]pyridine-5,7-diamine] |
| > 100 µM | C[C@@H]1CN(CCNc2cc(N)nc3cc(-c4ccn[nH]4)sc23)C[C@H](C)O1 [Compound 117, N^7-(2-((2S,6R)-2,6-dimethylmorpholino)ethyl)-2-(1H-pyrazol-5-yl)thieno[3,2-b]pyridine-5,7-diamine] |
| > 100 µM | N#CC1(CNc2cc(N)nc3cc(-c4ccn[nH]4)sc23)CC1 [Compound 119] |
| > 100 µM | Nc1cc(NCC2CCOCC2)c2sc(-c3ccn[nH]3)cc2n1 [Compound 120, 2-(1H-pyrazol-5-yl)-N^7-((tetrahydro-2H-pyran-4-yl)methyl)thieno[3,2-b]pyridine-5,7-diamine] |
| > 100 µM | CC1(CNc2cc(N)nc3cc(-c4ccn[nH]4)sc23)COC1 [Compound 121, N^7-((3-methyloxetan-3-yl)methyl)-2-(1H-pyrazol-5-yl)thieno[3,2-b]pyridine-5,7-diamine] |
| > 100 µM | CC(CO)(CO)CNc1cc(N)nc2cc(-c3ccn[nH]3)sc12 [Compound 122] |
| > 100 µM | Cc1c(-c2cc[nH]n2)sc2c(NCCN3CCOCC3)cc(N)nc12 [Compound 153] |
| > 100 µM | Cc1c(-c2cc[nH]n2)sc2c(NCC3CC3)cc(N)nc12 [Compound 156] |
| > 100 µM | Cc1c(-c2ccn[nH]2)sc2c(NC[C@@H]3CCCO3)cc(N)nc12 [Compound 157] |
| > 100 µM | Cc1c(-c2cc[nH]n2)sc2c(NCCCO)cc(N)nc12 [Compound 159] |

| EC50 | SMILES |
| --- | --- |
| > 100 µM | Nc1cc(N2CCN(C3CCCC3)CC2)c2sc(-c3ccn[nH]3)cc2n1 [Compound 160] |
| > 100 µM | CN1CCN(c2cc(N)nc3cc(-c4ccn[nH]4)sc23)CC1 [Compound 161] |
| > 100 µM | CC(C)N1CCN(c2cc(N)nc3cc(-c4ccn[nH]4)sc23)CC1 [Compound 162] |
| > 100 µM | Nc1cc(N2CCN(C3CC3)CC2)c2sc(-c3ccn[nH]3)cc2n1 [Compound 163] |
| > 100 µM | CS(=O)(=O)N1CCN(c2cc(N)nc3cc(-c4ccn[nH]4)sc23)CC1 [Compound 164] |
| > 100 µM | COC1(C)CCN(c2cc(N)nc3cc(-c4ccn[nH]4)sc23)CC1 [Compound 165] |
| > 100 µM | Nc1cc(N2CCCC(O)C2)c2sc(-c3ccn[nH]3)cc2n1 (stereo not drawn) [Compound 166] |
| > 100 µM | Nc1cc(N2CCN(C3CCCCC3)CC2)c2sc(-c3ccn[nH]3)cc2n1 [Compound 167] |
| > 100 µM | C[C@H]1CN(c2cc(N)nc3cc(-c4ccn[nH]4)sc23)C[C@H](C)O1 [Compound 168] |
| > 100 µM | C[C@@H]1CN(c2cc(N)nc3cc(-c4ccn[nH]4)sc23)C[C@H](C)O1 [Compound 169] |
| > 100 µM | Nc1cc(N2CCOCC2)c2sc(-c3ccn[nH]3)cc2n1 [Compound 170] |
| > 100 µM | CC1(C)CN(c2cc(N)nc3cc(-c4ccn[nH]4)sc23)CCO1 [Compound 171] |
| > 100 µM | Nc1cc(N2CCC(O)CC2)c2sc(-c3ccn[nH]3)cc2n1 [Compound 172] |
| > 100 µM | CC1(C)CCN(c2cc(N)nc3cc(-c4ccn[nH]4)sc23)CC1 [Compound 173] |
| > 100 µM | Nc1cc(N2CCN(c3ccccc3)CC2)c2sc(-c3ccn[nH]3)cc2n1 [Compound 174] |
| > 100 µM | Nc1cc(N2CCNCC2)c2sc(-c3ccn[nH]3)cc2n1 [Compound 175] |
| > 100 µM | C[C@@H]1COCCN1c1cc(N)nc2cc(-c3ccn[nH]3)sc12 [Compound 177] |
| > 100 µM | Nc1cc(N2CCN(C=O)CC2)c2sc(-c3ccn[nH]3)cc2n1 [Compound 178] |
| > 100 µM | COC1CCN(c2cc(N)nc3cc(-c4ccn[nH]4)sc23)C1 (stereo not drawn) [Compound 180] |
| > 100 µM | Nc1cc(N2CC[C@@H](O)C2)c2sc(-c3ccn[nH]3)cc2n1 [Compound 181] |
| > 100 µM | Nc1cc(N[C@H]2C[C@H]2CO)c2sc(-c3ccn[nH]3)cc2n1 [Compound 182s] |

| SMILES | EC50 |
| --- | --- |
| Nc1cc(N2CC3CC(C2)N3)c2sc(-c3ccn[nH]3)cc2n1 [Compound 176] | > 100 µM |
| Nc1cc(N2CC3CC(C2)N3C=O)c2sc(-c3ccn[nH]3)cc2n1 [Compound 179] | > 100 µM |
